From patent publication US4623657A, “Spiro [benzofuran-2(3H),1'-cycloheptane]s and their therapeutic use” (Hoechst-Roussel Pharmaceuticals Inc., priority 1985, dated 1986)
Where a name gives a salt, the structure may show the parent alone.

What was measured:
[1] = Antihypertensive activity, spontaneous hypertensive rat, indirect tail cuff method; format: in vivo; conditions: three days, measured on third day
Method: The spiro[benzofuran-2(3H),1'-cycloheptane]s of formula I of the present invention are useful as antihypertensive agents due to their ability to depress blood pressure in mammals. Antihypertensive activity is measured in the spontaneous hypertensive rat by the indirect tail cuff method described in "Methods in Pharmacology", A. Schwartz, Ed., Vol. I, Appleton-Century Crofts, New York, N. Y., 1971, p. 135. In this procedure a group of five animals are treated orally for three days with the test compound in relation to a control group of the same number. The drop in blood pressure is measured on the third day following administration. The antihypertensive activities of some of the compounds, expressed as a decrease in mean arterial blood pressure (in mm Hg), are given in Table I.

[2] = Anticonvulsant activity, supramaximal electroshock assay (SES); format: in vivo, mice; conditions: Mus musculus, ip
Method: Compounds I of the present invention are useful as anticonvulsant agents. […] Groups of male mice (18-30 grams) are used. Drugs are prepared using distilled water and if insoluble, a surfactant is added. Control animals receive vehicle. Drugs are routinely administered intraperitoneally. The dosage volume is 10 ml/kg.
The animal's eyes are placed across the output terminals of an A.C. shocker that delivers 206 volts rms for 300 milliseconds. Electrode paste coats the animal's eyes at the point of contact with the terminals.
Protection is expressed as normalized percent inhibition relative to vehicle control. [formula]
A time response is carried out using 6 animals per group. Animals are tested at 30, 60 and 120 minutes postdrug. Additional time periods are tested if indicated by previous tests.
When the peak activity time has been determined, a dose response is initiated, using 10 animals per group at that time period. The ED50 and 95% confidence interval are calculated by computerized probit analysis.

[3] = Analgesic activity, 2-phenyl-1,4-benzoquinone-induced writhing test; format: in vivo, mice
Excerpt: Compounds I of the present invention are useful as analgesic agents due to their ability to alleviate pain in mammals. […] Exptl. Biol. Med., 95, 729 (1957)].

[4] = Inhibition of tetrabenazine-induced ptosis (antidepressant activity); format: in vivo, mice; conditions: Mus musculus, ip, 0.5 h; i.p.; tetrabenazine 40 mg/kg i.p. 30 minutes after
Method: Compounds I of the present invention are useful as antidepressant agents due to their ability to prevent tetrabenazine induced ptosis in mice. The method used is as follows.
Male mice weighing 20 to 30 grams are used in test groups of five subjects. All compounds are dissolved, or suspended with one drop of a non-ionic surfactant in distilled water and administered in volumes of 10 ml/kg of body weight. Tetrabenazine (TBZ) solution is made from methanesulfonate salt and the concentration is adjusted to enable the administration of 40 mg/kg of base by intraperitoneal injection (i.p.).
If the test compound is administered intraperitoneally, TBZ is injected 30 minutes after administration. If the test compound is administered orally (p.o.), TBZ is injected 60 minutes after the administration. A control group received solvent and TBZ by the same route and at the same intervals as the drug groups.
Thirty and sixty minutes after TBZ injection the subjects are placed in individual plastic containers (10/1/2"×8"×6") and one minute after transfer they are scored for ptosis on the followig scale: eyes closed=4, eyes 3/4 closed=3, eyes 1/2 closed=2, eyes 1/4 closed=1, and eyes open=0. The total score for each group of five will therefore be from 0 to 20 and these scores are used as indications of drug activity.
The vehicle-control group score is used as a determinate of the validity of each test. […]

For CN(C)CCC=C1c2ccccc2OC12CCCCCC2, which “Blood Pressure Drop” value ([1]; 50 mg/kg p.o.) is on record?
Its value is 32 mm Hg.

Which ED50 [2] does the source give for CN(C)CCCC1c2ccccc2OC12CCCCCC2 (stereo not shown) [3-(3-Dimethylaminopropyl)-spiro[benzofuran-2(3H),1'-cycloheptane]hydrochloride] here?
The ED50 was 30.6 mg/kg.

For CN(C)CCCC1c2cc(Cl)ccc2OC12CCCCCC2.Cl (stereo not shown) [5-Chloro-3-(3-dimethylaminopropyl)-spiro[benzofuran-2(3H),1'-cycloheptane] hydrochloride], which “% Inhibition at 20 mg/kg, s.c.” value [3] is on record?
The value was 40%.

With CN(C)CCO/N=C1/c2ccccc2OC12CCCCCC2 [(Z)-O-Dimethylaminoethyl-spiro[benzofuran-2(3H),1'-cycloheptan]-3-one oxime maleate] as the compound, how does the ED50 [2] read?
The ED50 was 30.2 mg/kg.

What about the ED50 [4] of the same compound?
The ED50 was 72.5 mg/kg.

For CC(C)NCC(O)CO/N=C1/c2ccccc2OC12CCCCCC2 (stereo not shown) [(Z)-O-[3-[(1-Methylethyl)amino]-2-hydroxypropyl]spiro[benzofuran-2(3H),1'-cycloheptan]-3-one oxime maleate], which “% Inhibition at 20 mg/kg, s.c.” value [3] is on record?
The value was 40%.

For CNC1=Nc2ccc(Cl)cc2C(c2ccccc2)=[N+]([O-])C1 [Chlordiazepoxide, reference compound], which ED50 [2] is on record?
The ED50 was 8 mg/kg.

For CN(CCCC1c2ccccc2OC12CCCCCC2)CCc1ccccc1.O=C(O)/C=C/C(=O)O (stereo not shown) [N-Methyl-N-(2-phenylethyl)-spiro[benzofuran-2(3H),1'-cycloheptane]-3-propanamine fumarate], which “Blood Pressure Drop” value ([1]; 50 mg/kg p.o.) is on record?
The value was 76 mm Hg.

For CN(CCCC1c2ccccc2OC12CCCCCC2)Cc1ccccc1 (stereo not shown) [N-Methyl-N-[3-[spiro[benzofuran-2(3H),1'-cyclohept-3-yl]]propyl]benzenemethanamine maleate], which “% Inhibition at 20 mg/kg, s.c.” value [3] is on record?
The value was 54%.

For CN(CCCC(c1ccc(F)cc1)c1ccc(F)cc1)CCCC1c2ccccc2OC12CCCCCC2 (stereo not shown) [N-[4-[Bis(4-fluorophenyl)]-butyl]-N-methyl-spiro[benzofuran-2(3H),1'-cycloheptane]-3-propanamine fumarate], which “% Inhibition at 20 mg/kg, s.c.” value [3] is on record?
The value was 70%.

And the “Blood Pressure Drop” value ([1]; 30 mg/kg p.o.)?
Its value is 61 mm Hg.

With CCC(=O)O[C@](Cc1ccccc1)(c1ccccc1)[C@H](C)CN(C)C [Propoxyphene, reference compound] as the compound, how does the ED50 ([3]; Mus musculus, sc) read?
The ED50 was 3.9 mg/kg.

Which “Blood Pressure Drop” value ([1]; 50 mg/kg p.o.) does the source give for C[C@](N)(Cc1ccc(O)c(O)c1)C(=O)O [alpha-Methyldopa, reference compound] here?
Its value is 40 mm Hg.
